Assay results: patent US8771723B2, “Compositions for reducing gastro-intestinal methanogenesis in ruminants” (priority 2009, dated 2014)
Several values for one entry are separate records, joined by “and”; a condition that tells them apart may be missing. Equal entries are not always repeated. Marks after values point to notes of the source that are not given here.

What was measured:
rumen microbes = experiment: In vitro rumen fermentation simulation; type: cell-based, cow
Method: Feed used in rumen simulation was 1 gram of dry matter and composed of grass silage (0.5 g dry matter) and commercial compound feed, 0.5 g dry matter. The treatments were as indicate in the following table: […] All the treatments were run in quadruplicates, the total number of simulation vessels being 72. […] Finally, 2 ml of fresh, strained rumen fluid was added in the serum bottles, the final volume being 40 ml. This inoculation started the actual rumen simulation. Inoculation time for each vessel was registered and taken into account when sampling and stopping the fermentation. Rumen fermentation simulation was continued for 12 hours at 37° C. […] These samples were analysed for methane to see the effect of treatments on the total methane produced by rumen bacteria during the 12 hours. The analysis was performed by gas chromatography using flame ionisation detector and pure methane and ethane as standards. NO3 and NO2 were analysed from all simulation vessels at 0, 2, 4 and 12 hours. […] NH4 was analysed from all simulation vessels at 0, 2, 4 and 12 hours. The method was colorimetric and based on phenol-hypochlorite reaction. Statistical analysis consisted of two-tailed t-tests for all measured parameters. The tests were performed against the treatment with […] and MgSO4 amendment (treatments 2 and 17). t-test was chosen to let the individual treatments be independent of the other treatments tested simultaneously.

methanogens = experiment: Enteric methanogen counts; details: in vivo
[1] = system: methane emissions from enteric fermentation; experiment: Methane production in indirect respiration calorimetry chambers; type: in vivo, male Texel Cross lambs; details: for Actual decrease in methane production as CH4 mass: CH4=0.714 g/l; for Methane production rate over 24 h versus control: fed once daily, nitrate: immediately after feeding, SO4: entire 24 h-period; for Actual decrease in methane production / Reduction in daily methane production: respiration chambers; for Actual decrease in methane production: 24.9 g NO3 or 27.0 g SO4 consumed per day; for Reduction in daily methane production: addition to the diet
Source text: Feed intake and growth were monitored during the experiment. […] After the adaptation period four animals (one block) were housed in indirect respiration calorimetry chambers for a week to determine gaseous exchange. In the following weeks a new block of sheep was introduced to the chambers each week. Each respiration chamber housed an individual sheep. The respiration calorimetry chambers used are described in detail in […] et al. (1987). […] Net production or consumption of these gases was calculated from the difference in concentrations between in and outgoing air multiplied by air flow and subsequently recalculated to standard circumstances (0° C., 101 kPa, no water vapour). […] Animals were blocked by weight and subsequently within a block randomly allotted to one of four dietary treatments: CON, NO3, SO4 or NO3+SO4. During the adaptation phase, sheep were introduced to the experimental premixes in steps of 25% per week. […] Before morning feeding, orts were removed from the feed bins and weighed to determine voluntary feed intake. During the week in the respiration chambers, feed availability was restricted to 95% of the feed consumed by the animal consuming the least feed within a block in the week prior to housing in the respiration chambers. Feed restriction was applied to avoid interactions between the effect of the additives on DMI and the effect on methane production.

[2] = Feed intake, CO2/O2 exchange and heat production in respiration chambers; type: in vivo, male Texel Cross lambs
Method: After the adaptation period four animals (one block) were housed in indirect respiration calorimetry chambers for a week to determine gaseous exchange. In the following weeks a new block of sheep was introduced to the chambers each week. Each respiration chamber housed an individual sheep. The respiration calorimetry chambers used are described in detail in […] et al. (1987). […] Net production or consumption of these gases was calculated from the difference in concentrations between in and outgoing air multiplied by air flow and subsequently recalculated to standard circumstances (0° C., 101 kPa, no water vapour). […] Before morning feeding, orts were removed from the feed bins and weighed to determine voluntary feed intake. During the week in the respiration chambers, feed availability was restricted to 95% of the feed consumed by the animal consuming the least feed within a block in the week prior to housing in the respiration chambers. Feed restriction was applied to avoid interactions between the effect of the additives on DMI and the effect on methane production.

[3] = cited from earlier work
[4] = Methemoglobin content of blood during adaptation period
Method: Blood was sampled at d2, d8, d15, d22 and d28 at 1, 3 and 5 h post-feeding. […] Blood samples were taken in heparin containing collection tubes (Vacutainers) and stored in the refrigerator directly after sampling. At the end of the sampling day, samples were dispatched for analyses and were analyzed the next day.

[5] = Feed intake and growth during the 4-week adaptation to dietary nitrate and sulphate; type: in vivo, male Texel Cross lambs; details: for Feed intake: main effect, additive in diet (Yes); for Effect on body weight gain: adaptation stage; for Body weight (BW) / Body weight gain (BWG) overall / Body weight gain (BWG): main effect (Yes); for Body weight gain (BWG) overall: overall adaptation stage
Source text: Feed intake and growth were monitored during the experiment. […] The Animal Care and Use Committee of the Animal Sciences Group, WUR, Lelystad approved the experimental protocol of this experiment. […] During a four-week adaptation phase to the dietary additives, animals were housed in individual calf hutches to allow individual feeding. Sheep were weighed weekly to monitor growth during the entire experiment. […] Animals were blocked by weight and subsequently within a block randomly allotted to one of four dietary treatments: CON, NO3, SO4 or NO3+SO4. […] At feeding, the premixes were hand-mixed into the diets. Water was freely available during the experiment. […] Before morning feeding, orts were removed from the feed bins and weighed to determine voluntary feed intake. During the week in the respiration chambers, feed availability was restricted to 95% of the feed consumed by the animal consuming the least feed within a block in the week prior to housing in the respiration chambers. Feed restriction was applied to avoid interactions between the effect of the additives on DMI and the effect on methane production. […] Limestone was added to the control diet to ensure equal Ca-intake between treatments. MgO was included in the diet to obtain similar Mg-levels between diets. The volume of the different additions to the diets was different for each treatment, and wood cellulose was used to balance for this.

[6] = Blood methaemoglobin in cows supplemented with nitrate and sulphate; type: in vivo
Method: The experiment was a randomized block design, with 4 animals per block and different sulphate doses as treatments. Animals were blocked by milk yield and subsequently within a block randomly allotted to one of four dietary treatments: NO3, NO3+low SO4, NO3+medium SO4, NO3+high SO4.
The dietary additives were included in the premix (table 5). At feeding, the premixes were delivered to cows as part of a Total Mixed Ration. Water was freely available during the experiment.
Blood was sampled 3 h post-feeding twice a week throughout the experiment to closely monitor the concentration of methaemoglobin. Blood was collected into evacuated tubes containing heparin, plunged immediately into ice-cold water and stored in a refrigerator at 4 C. At the end of each sampling day, samples were dispatched for analysis and were analyzed the next day.

| Molecule | effect on enteric methanogen counts (methanogens) | Actual decrease in methane production as CH4 mass [1] [g] | Methane production rate over 24 h versus control [1] | Actual decrease in methane production [1] [L] | Reduction in daily methane production [1] [%] | Feed intake ([5]; Week 1 of adaptation) [g/lamb/day] | Feed intake ([5]; Week 2 of adaptation) [g/lamb/day] | Feed intake ([5]; Week 3 of adaptation) [g/lamb/day] | Feed intake ([5]; Week 4 of adaptation) [g/lamb/day] | Effect on body weight gain [5] | Body weight (BW) ([5]; day 0) [kg/lamb] | Body weight (BW) ([5]; day 7) [kg/lamb] | Body weight (BW) ([5]; day 14) [kg/lamb] | Body weight (BW) ([5]; day 21) [kg/lamb] | Body weight (BW) ([5]; day 28) [kg/lamb] | Body weight gain (BWG) overall [5] [kg/lamb/week] | Body weight gain (BWG) ([5]; week 1) [kg/lamb/week] | Body weight gain (BWG) ([5]; week 2) [kg/lamb/week] | Body weight gain (BWG) ([5]; week 3) [kg/lamb/week] | Body weight gain (BWG) ([5]; week 4) [kg/lamb/week] | further results |
| --- | --- | --- | --- | --- | --- | --- | --- | --- | --- | --- | --- | --- | --- | --- | --- | --- | --- | --- | --- | --- | --- |
| 5Ca(NO3)2•NH4NO3•10H2O [Nitrate] | reduce enteric methanogen counts | 5.8 | remained at a far lower level | 8.1 | 34 | 2686 | 2591 | 2526 | 2411 | did not affect body weight gain | 43.0 | 43.6 | 44.7 | 45.2 | 45.5 | 2.46 | 0.54 | 1.08 | 0.59 | 0.25 | suppression of absolute methane production (rumen microbes; 12-hour simulation (FIG. 5A)): ~80%; total produced methane (rumen microbes; 12-hour simulation, 14 mM nitrate): 1.5 mL; residual concentration of ammonium (rumen microbes; 12 hours, 14 mM nitrate added (FIG. 8C)): 18 mM; Oxygen consumption lower than control ([2]; directly after feeding at 8 AM): 10-18%; MetHb-levels estimated from oxygen consumption ([2]; regression equation of Takahashi et al., 1998): approximately 5%; Reduction in oxygen consumption ([2]; respiration chambers, daily): 6%; MetHb-levels ([3]; Sar et al. (2004), 0.9 g NO3/kg^0.75 of BW intraruminally, no adaptation): 18.4 % of Hb; blood MetHb-content ([4]; 75% of the inclusion rate, 3 h post feeding, one sheep tested positive): 3 % of Hb; MetHb-values ([4]; 100% inclusion rate for one week (d28), 3 h post-feeding, two individual sheep tested positive, listed as NO3): 7 % of Hb and 3 % of Hb; MetHb-levels, highest observed ([4]; whole experiment, detection limit 2% of Hb): ≤ 7 % of Hb; Feed intake reduction ([5]; period beyond week 1 (more than 25% of final inclusion rate)): approximately 9%; rise in blood methaemoglobin ([6]; 100% inclusion rate of nitrate): more pronounced; Blood methaemoglobin ([6]; cows, diets with 3% NO3 of DM and increasing SO4 (table 5)): 13.1^a % of haemoglobin |
| O=S(=O)([O-])[O-].[Mg+2] [Sulphate, MgSO4 (anhydrous)] | does not | 2.9 | consistently lower than the control treatment | 4 | 19 | 2724 | 2770 | 2618 | 2457 | did not affect body weight gain | 42.4 | 43.1 | 44.3 | 44.7 | 44.8 | 2.34 | 0.70 | 1.20 | 0.38 | 0.06 |  |
| CC(O)C(=O)O (centres unmarked) [lactic acid, Na-lactate] |  |  |  |  |  |  |  |  |  |  |  |  |  |  |  |  |  |  |  |  | gas production, initial (rumen microbes; first 4 hours, compared to the nitrate enriched treatment (Calcinit + MgSO4)): suppressed; cumulative gas production, later time points (rumen microbes; later time points up to 12 h, compared to Calcinit + MgSO4): continued to suppress gas production dose dependently |
| O=[N+]([O-])[O-].[Na+] [NaNO3, reference compound] |  |  |  |  |  |  |  |  |  |  |  |  |  |  |  |  |  |  |  |  | Concentrations of MetHb ([3]; Takahashi et al., 1998, 1.5 g/kg BW^0.75 into the rumen): over 30% |
